Each structure is given as a SMILES string.

For one assay, the system named is O4^+ cells. Put plainly: FACS-analysis for O4+ cells at day 75 of differentiation. Type of assay: cell-based, human. As to conditions: RA only vs RA and SAG in the first 12 days. The procedure:
FIGS. 3A-3C show SHH and dual SMAD inhibition requirements for OLIG2^+ progenitors. […] Endogenous SHH levels are higher in the samples that were not exposed to SHH/SAG. Error bars are SEM (N=3). […] Negative Control: APC-conjugated secondary antibody only.
Spheres were plated on pO/L plates, as described above, in PDGF Medium at day 30, changing ⅔ of the PDGF Medium every other day until day 75 of differentiation. The appearance of O4^+ cells was assessed by live O4 staining from day 55 onwards (FIG. 6). At day 75, O4^+ OPCs could be isolated by FACS (FIG. 7I). Alternatively, for terminal oligodendrocyte differentiation (FIG. 7G-7H), cells were cultured in Glial Medium from day 75, changing ⅔ of the medium every 3 days for two weeks.
Cells were enzymatically harvested by ACCUTASE® treatment for 25 min at 37° C. to obtain a single cell suspension. Cells were then re-suspended in 100 μl of their respective medium containing the appropriate amount of either primary antibody or fluorescence-conjugated antibodies and were incubated on ice for 30 minutes shielded from light. When secondary antibodies were used, primary antibodies were washed with PBS and secondary antibodies were applied for 30 minutes on ice. […] Flow cytometry data were analyzed using BD FACSDiva™ software.

Assay [1] deals with OLIG2-GFP knock-in hESC reporter line. Put plainly: Flow cytometric quantification of OLIG2-GFP expression under RA/SHH/SAG conditions. It is filed as cell-based, human. The procedure:
FIGS. 2A-2D show the requirement for RA and SHH to derive OLIG2^+ progenitor cells. […] RA at a concentration of 100 nM from day 0 results in the highest yield of GFP^+ cells. […] Negative: hESC line RUES1. […] Error bars are SEM (N=3). […] Only GFP^+ cells form spheres, providing enrichment to the GFP^+ population.
We used an OLIG2-GFP knock-in hESC reporter line (Liu et al., 2011) to track OLIG2^+ progenitors by live fluorescent imaging. First, we induced PAX6^+ cells using dual inhibition of SMAD signaling in adherent cultures. Chambers, S. M. et al., Nat Biotechnol. 27:275-80 (2009). Next, to mimic the embryonic spinal cord environment, we applied different concentrations of RA and/or SHH at various times and quantified OLIG2-GFP expression through flow cytometry (FIG. 2A).
At day 12, cells were detached and placed into low-attachment plates to promote their aggregation into spheres. The minimum number of cells required to form a sphere was at least 100 cells, and we noted that the majority of cells in the spheres were GFP^+. To investigate this further, we sorted day 12 cultures for GFP, and observed that only the GFP^+ cells formed aggregates (FIG. 2C).
At the day of differentiation induction (day 0), medium was switched to Neural Induction Medium, which is mTeSR Custom Medium (Stemcell Technologies) containing the small molecules SB431542 10 μM (Stemgent) and LDN193189 250 nM (Stemgent), as well as 100 nM all-trans-RA (Sigma-Aldrich; St. Louis, Mo.). mTeSR Custom Medium has the same composition as the commercially available mTeSR-1 medium but without five factors that sustain pluripotency, namely lithium chloride, GABA, pipecolic acid, bFGF, and TGFβ1 (Stemcell Technologies). […]
Cells were enzymatically harvested by ACCUTASE® treatment for 25 min at 37° C. to obtain a single cell suspension. Cells were then re-suspended in 100 μl of their respective medium containing the appropriate amount of either primary antibody or fluorescence-conjugated antibodies and were incubated on ice for 30 minutes shielded from light. […] Flow cytometry data were analyzed using BD FACSDiva™ software.

On to `CN[C@H]1CC[C@H](N(Cc2cccc(-c3ccncc3)c2)C(=O)c2sc3ccccc3c2Cl)CC1` [SAG, 3-chloro-N-[(1r,4r)-4-(methylamino)cyclohexyl]-N-[3-(pyridin-4-yl)benzyl]benzo[b]thiophene-2-carboxamide], for which the “Decrease in the O4^+ population in cells not provided with SAG” value in the assay with O4^+ cells worked out at 56%. In addition, in assay [1] (SAG replacing recombinant human SHH from day 8, with 100 nM RA from day 0), the “OLIG2^+ progenitors yield” value was 70.1%.

On to `CC1=C(/C=C/C(C)=C/C=C/C(C)=C/C(=O)O)C(C)(C)CCC1` [RA, all trans retinoic acid], for which, in assay [1] (100 nM RA from the beginning of induction, no exogenous SHH, OLIG2-GFP flow cytometry, day 14), the “OLIG2^+ progenitors generated” value is 40.6%. The “Yield of GFP^+ cells under different RA and SHH conditions” value in assay [1] (RA 100 nM from day 0, day 14 of differentiation) is on record as “highest yield”.

Values taken from patent US11814648B2, “Functional oligodendrocytes derived from pluripotent stem cells and methods of making and using the same” (New York Stem Cell Foundation, Inc., priority 2014, dated 2023).
